Molecules are shown by their SMILES.

In this test the target is T1, 15-hydroxyprostaglandin dehydrogenase [NAD(+)] (Homo sapiens, UniProt P15428).
T1 sequence (P15428 whole entry): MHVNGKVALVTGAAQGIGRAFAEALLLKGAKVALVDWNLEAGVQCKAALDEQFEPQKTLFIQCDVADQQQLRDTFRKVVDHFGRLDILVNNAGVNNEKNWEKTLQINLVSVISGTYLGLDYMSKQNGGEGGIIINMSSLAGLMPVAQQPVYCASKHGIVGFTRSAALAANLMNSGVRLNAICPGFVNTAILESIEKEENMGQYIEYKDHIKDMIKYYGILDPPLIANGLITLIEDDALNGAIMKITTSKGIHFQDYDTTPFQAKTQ
The experiment in a line: In vitro Assay (1 nM). The protocol:
Each compound for inhibiting enzymatic activity of recombinant 15-PGDH (1 nM) in an in vitro assay.
Turning to `CCCC[S+]([O-])c1sc2nc(-c3ncccc3F)cc(-c3cnc(C)n3C)c2c1N` (stereo unspecified) [US20240043440, Example 45], the IC50 (in general, the concentration needed to halve the response being measured) came to 2.2 nM. This lies in the single-digit nanomolar range.
With `COCC[S+]([O-])c1sc2nc(-c3cccnc3)cc(-c3cncn3C)c2c1N` (stereo unspecified) [US20240043440, Example 49] the figure was 1.8 nM; with `CCCC[S+]([O-])c1sc2nc(-c3ccccn3)cc(-c3cnc(C)n3C)c2c1N` (stereo unspecified) [US20240043440, Example 40], 2.4 nM; with `CCCC[S+]([O-])c1sc2nc(-c3cnc(N)nc3)cc(-c3ccc(F)cc3)c2c1N` (stereo unspecified) [US20240043440, Example 61], 1.1 nM.
With `Cn1cncc1-c1cc(-c2nccs2)nc2sc([S+]([O-])C3CCCCC3)c(N)c12` (stereo unspecified) [US20240043440, Example 33] the figure was 1.6 nM; with `CCCC[S+]([O-])c1sc2nc(-c3cnc(N)nc3)cc(-c3cnc(C)n3C)c2c1N` (stereo unspecified) [US20240043440, Example 72], 0.93 nM.
The figure for `CCCC[S+]([O-])c1sc2nc(-c3cccnc3)nc(-c3ccccc3)c2c1N` (stereo unspecified) [US20240043440, Example 74] is 1.2 nM; for `COCCC[S+]([O-])c1sc2nc(-c3cnc(N)nc3)cc(-c3ccccc3)c2c1N` (stereo unspecified) [US20240043440, Example 65] it is 1.1 nM.
Consider `CCCC[S+]([O-])c1sc2nc(-c3cccnc3)cc(-c3cncn3C)c2c1N` (stereo unspecified) [US20240043440, Example 43], for which the IC50 was determined as 1.1 nM. This lies in the single-digit nanomolar range.
With `COCCC[S+]([O-])c1sc2nc(-c3cnco3)cc(-c3ccccc3)c2c1N` (stereo unspecified) [US20240043440, Example 70] the figure was 0.88 nM; with `COCC[S+]([O-])c1sc2nc(-c3nccs3)cc(-c3cncn3C)c2c1N` (stereo unspecified) [US20240043440, Example 36], 1.5 nM; with `COCCC[S+]([O-])c1sc2nc(-c3cnn(C)c3)cc(-c3ccccc3)c2c1N` (stereo unspecified) [US20240043440, Example 66], 1.4 nM.
With `CCCC[S+]([O-])c1sc2nc(-c3cccnc3)cc(-c3ccncc3)c2c1N` (stereo unspecified) [US20240043440, Example 71] the figure was 0.98 nM.
With `CCCC[S+]([O-])c1sc2nc(-c3cnc(N)nc3)cc(-c3nccs3)c2c1N` (stereo unspecified) [US20240043440, Example 69] the figure was 1.1 nM.
Consider `Cc1ncc(-c2cc(-c3nccs3)nc3sc([S+]([O-])CC(C)C)c(N)c23)n1C` (stereo unspecified) [US20240043440, Example 35], for which the IC50 came out at 3.6 nM.
With `CCCC[S+]([O-])c1sc2nc(-c3cccnc3)nc(-c3cscn3)c2c1N` (stereo unspecified) [US20240043440, Example 81] the figure was 0.76 nM.
The figure for `CCCC[S+]([O-])c1sc2nc(-c3cnc(NC)nc3)cc(-c3ccccc3)c2c1N` (stereo unspecified) [US20240043440, Example 60] is 1.4 nM; for `COCCC[S+]([O-])c1sc2nc(-c3nccs3)cc(-c3cncn3C)c2c1N` (stereo unspecified) [US20240043440, Example 37] it is 1.8 nM.
The figure for `COCCC[S@@+]([O-])c1sc2nc(-c3cccnc3)nc(-c3ccc(F)cc3)c2c1N` [US20240043440, Example 87A] is 1.3 nM.
Take `COCC[S+]([O-])c1sc2nc(-c3cccnc3)nc(-c3ccccc3)c2c1N` (stereo unspecified) [US20240043440, Example 79]: the IC50 is 1.5 nM.
The figure for `CCCC[S+]([O-])c1sc2nc(-c3ncccn3)nc(-c3ccccc3)c2c1N` (stereo unspecified) [US20240043440, Example 80] is 12 nM; for `CCCC[S+]([O-])c1sc2nc(-c3cccnc3)nc(-c3nccs3)c2c1N` (stereo unspecified) [US20240043440, Example 82] it is 1 nM.
The figure for `CCCC[S@@+]([O-])c1sc2nc(-c3cccnc3)nc(-c3nccn3C)c2c1N` [US20240043440, Example 86A] is 0.56 nM; for `CCCC[S+]([O-])c1sc2nc(-c3cnn(C)c3)cnc2c1N` (stereo unspecified) [US20240043440, Example 75] it is 2.8 nM; for `CCCC[S+]([O-])c1sc2nc(-c3cccnc3)cc(-c3cccc(C#N)c3)c2c1N` (stereo unspecified) [US20240043440, Example 57] it is 1.1 nM.
The figure for `COCCC[S+]([O-])c1sc2nc(-c3cccnc3)nc(-c3ccccc3)c2c1N` (stereo unspecified) [US20240043440, Example 78] is 1.4 nM.

The values are drawn from BindingDB's records for patent US20240043440 (Case Western Reserve University, 2024).
